Test results: BindingDB's records for doi:10.1016/j.bmc.2019.01.012 (University of Education, 2019)

How the values were obtained:
[1] = molecular target: Acetylcholinesterase (Homo sapiens, UniProt P22303); test: Inhibition of AChE (unknown origin) using […] as substrate by Ellman method
[2] = molecular target: Cholinesterase (Homo sapiens, UniProt P06276); test: Inhibition of BuChE (unknown origin) using butyrylthiocholine bromide as substrate by Ellman method
Chain of Cholinesterase (P06276 whole entry): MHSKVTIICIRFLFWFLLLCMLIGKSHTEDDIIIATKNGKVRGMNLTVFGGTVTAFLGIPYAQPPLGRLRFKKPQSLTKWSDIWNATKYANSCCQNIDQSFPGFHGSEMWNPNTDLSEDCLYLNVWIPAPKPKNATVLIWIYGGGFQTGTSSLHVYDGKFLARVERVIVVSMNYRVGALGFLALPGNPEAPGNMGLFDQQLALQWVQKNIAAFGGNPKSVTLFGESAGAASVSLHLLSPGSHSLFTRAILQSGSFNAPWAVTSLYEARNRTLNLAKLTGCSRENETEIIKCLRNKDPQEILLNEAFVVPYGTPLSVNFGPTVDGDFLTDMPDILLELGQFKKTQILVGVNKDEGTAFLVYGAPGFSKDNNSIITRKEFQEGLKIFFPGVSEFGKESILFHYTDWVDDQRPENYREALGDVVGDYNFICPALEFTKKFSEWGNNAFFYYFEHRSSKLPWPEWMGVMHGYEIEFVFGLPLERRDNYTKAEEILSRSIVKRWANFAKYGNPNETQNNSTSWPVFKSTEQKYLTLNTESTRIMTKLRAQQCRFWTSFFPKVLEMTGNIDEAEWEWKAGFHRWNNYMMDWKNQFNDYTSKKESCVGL

Chain of Acetylcholinesterase (P22303 whole entry): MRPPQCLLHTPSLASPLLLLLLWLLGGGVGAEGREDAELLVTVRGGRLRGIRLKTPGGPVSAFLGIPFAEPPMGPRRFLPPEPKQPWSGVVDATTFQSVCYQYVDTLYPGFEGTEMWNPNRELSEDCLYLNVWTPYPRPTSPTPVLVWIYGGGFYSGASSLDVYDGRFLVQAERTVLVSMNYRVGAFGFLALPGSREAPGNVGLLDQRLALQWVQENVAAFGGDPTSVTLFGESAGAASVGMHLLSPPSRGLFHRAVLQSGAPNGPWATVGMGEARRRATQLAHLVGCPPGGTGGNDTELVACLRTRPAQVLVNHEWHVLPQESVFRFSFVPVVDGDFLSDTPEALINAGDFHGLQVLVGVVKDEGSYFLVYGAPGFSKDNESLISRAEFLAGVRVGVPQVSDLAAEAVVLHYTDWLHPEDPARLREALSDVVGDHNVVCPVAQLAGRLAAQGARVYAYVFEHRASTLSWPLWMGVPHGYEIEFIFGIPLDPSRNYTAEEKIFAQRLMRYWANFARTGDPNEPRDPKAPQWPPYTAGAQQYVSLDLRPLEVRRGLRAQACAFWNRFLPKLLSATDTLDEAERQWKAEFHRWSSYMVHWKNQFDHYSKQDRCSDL

Structure (SMILES) | IC50 [1] | IC50 [2]
CC(C)Cc1ccc(C(C)C(=O)NS(=O)(=O)c2ccc(N)cc2)cc1 (stereo not given) | < 600 µM | 214 µM
CC(C)Cc1ccc([C@H](C)C(=O)O)cc1 [(RS)-ibuprofen] | 235 µM | < 600 µM
Nc1ccc(S(N)(=O)=O)cc1 [aromatic sulfonamide compound 5] |  | 138 µM
